Measurements as given in ChEMBL document CHEMBL1201862, “PubChem BioAssay data set” (2004).
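A five-concentration, 48-hour dose response in 96-well plates underlies each endpoint, interpolated linearly between surrounding concentrations. GI50 = concentration required for 50% inhibition of growth.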 The source made the active and inactive calls. Cut-off read from the data, not from the text of the source: active = GI50 up to about 1.1 µM and inactive = higher.

How the values were obtained:
Assay in all cases: NCI tumour cell line growth inhibition, 48 h
[1] = test system: 786-0
[2] = test system: A498
[3] = test system: A549
[4] = test system: CAKI-1
[5] = test system: CCRF-CEM
[6] = test system: COLO 205
[7] = test system: DLD-1
[8] = test system: DMS-114
[9] = test system: DMS-273
[10] = test system: EKVX
[11] = test system: HCC 2998
[12] = test system: HCT-116
[13] = test system: HCT-15
[14] = test system: HL-60
[15] = test system: HOP-62
[16] = test system: HOP-92
[17] = test system: HT-29
[18] = test system: IGROV-1
[19] = test system: K562
[20] = test system: KM-20L2
[21] = test system: LOX IMVI
[22] = test system: LXFL 529
[23] = test system: M14
[24] = test system: M19-MEL
[25] = test system: MOLT-4
[26] = test system: Malme-3M
[27] = test system: NCI-H226
[28] = test system: NCI-H23
[29] = test system: NCI-H460
[30] = test system: NCI-H522
[31] = test system: OVCAR-3
[32] = test system: OVCAR-4
[33] = test system: OVCAR-5
[34] = test system: OVCAR-8
[35] = test system: RPMI-8226
[36] = test system: RXF 631
[37] = test system: SF-268
[38] = test system: SF-539
[39] = test system: SK-MEL-28
[40] = test system: SK-MEL-2
[41] = test system: SK-MEL-5
[42] = test system: SK-OV-3
[43] = test system: SN12C
[44] = test system: SNB-19
[45] = test system: SNB-75
[46] = test system: SNB-78
[47] = test system: SW-620
[48] = test system: TK-10
[49] = test system: U-251
[50] = test system: UACC-257
[51] = test system: UACC-62
[52] = test system: UO-31
[53] = test system: ACHN
[54] = test system: HOP-18
[55] = test system: XF498

**Q.** For `CCCCCCCCCC[C@@H](O)[C@@H]1CC[C@H]([C@H]2CC[C@@H]([C@@H](O)CCCCCCCCCC[C@H]3CC(CC(C)=O)C(=O)O3)O2)O1` (stereo partly drawn), which GI50 [1] is on record?
**A.** 11.4 µM (inactive)

**Q.** And the GI50 [2]?
**A.** 16.2 µM (inactive)

**Q.** And the GI50 [3]?
**A.** 8.77 µM (inactive)

**Q.** And the GI50 [4]?
**A.** 16.7 µM (inactive)

**Q.** What about the GI50 [5] of the same compound?
**A.** 3.07 µM (inactive)

**Q.** What about the GI50 [6] of the same compound?
**A.** 13.4 µM (inactive)

**Q.** And the GI50 [7]?
**A.** 16.6 µM (inactive)

**Q.** And the GI50 [8]?
**A.** < 0.01 µM (active)

**Q.** And the GI50 [9]?
**A.** 10.3 µM (inactive)

**Q.** What about the GI50 [10] of the same compound?
**A.** 7.16 µM (inactive)

**Q.** And the GI50 [11]?
**A.** 25.5 µM (inactive)

**Q.** What about the GI50 [12] of the same compound?
**A.** 1.18 µM (inactive)

**Q.** And the GI50 [13]?
**A.** 4.55 µM

**Q.** And the GI50 [14]?
**A.** < 0.01 µM (active)

**Q.** And the GI50 [15]?
**A.** 15.1 µM (inactive)

**Q.** And the GI50 [16]?
**A.** 14.7 µM (inactive)

**Q.** And the GI50 [17]?
**A.** 15.8 µM (inactive)

**Q.** What about the GI50 [18] of the same compound?
**A.** 12.8 µM (inactive)

**Q.** And the GI50 [19]?
**A.** < 0.01 µM (active)

**Q.** What about the GI50 [20] of the same compound?
**A.** 14.6 µM (inactive)

**Q.** And the GI50 [21]?
**A.** 10.2 µM (inactive)

**Q.** And the GI50 [22]?
**A.** 3.3 µM (inactive)

**Q.** What about the GI50 [23] of the same compound?
**A.** 11.8 µM (inactive)

**Q.** What about the GI50 [24] of the same compound?
**A.** 13.9 µM (inactive)

**Q.** And the GI50 [25]?
**A.** 1.67 µM (inactive)

**Q.** And the GI50 [26]?
**A.** 3.15 µM (inactive)

**Q.** And the GI50 [27]?
**A.** 3.09 µM (inactive)

**Q.** And the GI50 [28]?
**A.** < 0.01 µM (active)

**Q.** What about the GI50 [29] of the same compound?
**A.** 15.7 µM (inactive)

**Q.** And the GI50 [30]?
**A.** 0.0324 µM (active)

**Q.** And the GI50 [31]?
**A.** 0.171 µM (active)

**Q.** And the GI50 [32]?
**A.** < 0.01 µM (active)

**Q.** And the GI50 [33]?
**A.** 18 µM (inactive)

**Q.** What about the GI50 [34] of the same compound?
**A.** 8.47 µM (inactive)

**Q.** And the GI50 [35]?
**A.** 1.01 µM (active)

**Q.** And the GI50 [36]?
**A.** 8.91 µM (inactive)

**Q.** And the GI50 [37]?
**A.** 1.62 µM (inactive)

**Q.** What about the GI50 [38] of the same compound?
**A.** 10.8 µM (inactive)

**Q.** And the GI50 [39]?
**A.** 9.35 µM (inactive)

**Q.** What about the GI50 [40] of the same compound?
**A.** 14.4 µM (inactive)

**Q.** And the GI50 [41]?
**A.** < 0.01 µM (active)

**Q.** And the GI50 [42]?
**A.** 17.3 µM (inactive)

**Q.** And the GI50 [43]?
**A.** 10.3 µM (inactive)

**Q.** And the GI50 [44]?
**A.** 10.4 µM (inactive)

**Q.** What about the GI50 [45] of the same compound?
**A.** 12 µM (inactive)

**Q.** And the GI50 [46]?
**A.** 10.9 µM (inactive)

**Q.** What about the GI50 [47] of the same compound?
**A.** 13.5 µM (inactive)

**Q.** And the GI50 [48]?
**A.** 12.6 µM (inactive)

**Q.** And the GI50 [49]?
**A.** 15 µM (inactive)

**Q.** What about the GI50 [50] of the same compound?
**A.** 0.955 µM (active)

**Q.** What about the GI50 [51] of the same compound?
**A.** 10.7 µM (inactive)

**Q.** What about the GI50 [52] of the same compound?
**A.** 1.08 µM (active)

**Q.** What does the source list for `COc1ccc(C(=O)O/N=C2\CCCC\C2=C/c2ccccc2)cc1`?
**A.** GI50 [1]: 33.8 µM (inactive); GI50 [2]: 74.8 µM (inactive); GI50 [3]: > 100 µM (inactive); GI50 [53]: 67.3 µM (inactive); GI50 [4]: 81.5 µM (inactive); GI50 [5]: > 100 µM (inactive); GI50 [6]: > 100 µM (inactive); GI50 [7]: > 100 µM (inactive); GI50 [8]: 80.7 µM (inactive); GI50 [9]: > 100 µM (inactive); GI50 [10]: > 100 µM (inactive); GI50 [11]: > 100 µM (inactive); GI50 [12]: > 100 µM (inactive); GI50 [13]: > 100 µM; GI50 [14]: > 100 µM (inactive); GI50 [54]: 51.5 µM (inactive); GI50 [15]: 45.3 µM (inactive); GI50 [17]: > 100 µM (inactive); GI50 [18]: > 100 µM (inactive); GI50 [19]: > 10 µM (inactive); GI50 [20]: > 100 µM (inactive); GI50 [21]: > 100 µM (inactive); GI50 [22]: > 100 µM (inactive); GI50 [23]: > 100 µM (inactive); GI50 [24]: > 100 µM (inactive); GI50 [25]: > 100 µM (inactive); GI50 [28]: 15.4 µM (inactive); GI50 [29]: > 100 µM (inactive); GI50 [32]: 27.6 µM (inactive); GI50 [34]: > 100 µM (inactive); GI50 [36]: > 100 µM (inactive); GI50 [37]: 67.1 µM (inactive); GI50 [38]: 27.5 µM (inactive); GI50 [39]: > 100 µM (inactive); GI50 [41]: > 100 µM (inactive); GI50 [42]: > 100 µM (inactive); GI50 [43]: > 100 µM (inactive); GI50 [44]: 58.3 µM (inactive); GI50 [45]: 28.4 µM (inactive); GI50 [46]: 34 µM (inactive); GI50 [47]: > 100 µM (inactive); GI50 [48]: 68.7 µM (inactive); GI50 [49]: 57.3 µM (inactive); GI50 [51]: > 100 µM (inactive); GI50 [52]: > 100 µM (inactive); GI50 [55]: 35.5 µM (inactive)
